In patent US5981517A, “Androstene derivatives” (priority 1997, dated 1999):

Key:
[1] = target: T1, rat lung glucocorticoid receptor (Rattus norvegicus, UniProt P06536); assay: Receptor binding studies ([3H]triamcinolone acetonide displacement); parameters: Receptor binding affinity: scale not given here; conditions: for RBA: further receptor binding studies (Table X), dexamethasone = 100, * mean ± SE of 3-5 results; for IC50: rat lung cytosol, 10 nM [3H]triamcinolone acetonide, 2 h, 24° C., read-out: IC50; for IC50 / Relative binding affinity (RBA): with Δ1-cortienic acid; for Relative binding affinity (RBA): with respect to dexamethasone (RBA = 100)
T1 construct: Immediately after resection of the lungs, the tissue was frozen in ice; The cytosol was prepared; from tissue; host or cells: lung cytosol of adrenalectomized male Sprague-Dawley rats
T1 sequence (P06536 1-795): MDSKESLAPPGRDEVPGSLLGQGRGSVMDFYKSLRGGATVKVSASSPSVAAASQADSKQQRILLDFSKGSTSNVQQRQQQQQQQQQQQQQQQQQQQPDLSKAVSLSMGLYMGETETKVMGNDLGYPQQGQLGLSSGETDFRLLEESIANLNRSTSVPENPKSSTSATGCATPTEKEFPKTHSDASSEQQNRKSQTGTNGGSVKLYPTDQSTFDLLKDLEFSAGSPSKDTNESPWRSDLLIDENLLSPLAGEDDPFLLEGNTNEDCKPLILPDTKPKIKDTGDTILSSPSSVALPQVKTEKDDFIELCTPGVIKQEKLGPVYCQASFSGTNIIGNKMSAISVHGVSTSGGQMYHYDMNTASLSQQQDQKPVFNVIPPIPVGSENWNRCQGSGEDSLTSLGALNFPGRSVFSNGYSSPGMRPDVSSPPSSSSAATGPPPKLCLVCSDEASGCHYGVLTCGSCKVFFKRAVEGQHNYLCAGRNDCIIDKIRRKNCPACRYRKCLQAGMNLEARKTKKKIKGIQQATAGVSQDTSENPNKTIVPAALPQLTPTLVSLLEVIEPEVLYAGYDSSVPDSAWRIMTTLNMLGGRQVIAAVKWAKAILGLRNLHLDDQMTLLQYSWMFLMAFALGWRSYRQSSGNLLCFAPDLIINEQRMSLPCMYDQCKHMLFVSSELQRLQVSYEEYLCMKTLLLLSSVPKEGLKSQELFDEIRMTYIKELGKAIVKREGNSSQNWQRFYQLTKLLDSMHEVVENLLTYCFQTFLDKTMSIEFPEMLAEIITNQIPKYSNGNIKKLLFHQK
Method: Male Sprague-Dawley rats, each weighing 150 to 200 g, were used 6 days after adrenalectomy. Rats were sacrificed by decapitation. Immediately after resection of the lungs, the tissue was frozen in ice. […] Portions (5 ml) of the cytosol were frozen in liquid nitrogen and stored at -80° C.
The cytosol was thawed in a water bath and diluted with 1 part of incubation buffer containing a 15 mM concentration of diisopropyl fluorophosphate. […] After a 2 hour incubation period at room temperature (24° C.), the unbound steroid was removed by addition of a 2% suspension of activated charcoal in incubation buffer (400 μL). The mixture was incubated for 5 minutes at room temperature and then was centrifuged at about 10,000 g for 3 minutes in the microcentrifuge. The radioactivity (cpm) in the supernatant (400 μL) was determined by liquid scintillation counting.
The data is fitted to the following logistic function:
B=T-T * C^N /(C^N +IC50^N)+NS,
where B=CPM in the presence of competitor, T=CPM in the absence of competitor, C=competitor concentration, N=Hill slope factor, and NS=cpm under non-specific binding conditions.
For the representative compound of the invention B, receptor binding affinity was investigated with and without Δ^1 -cortienic acid in the incubation solution to study the effect of Δ^1 -cortienic acid on the receptor binding.
Further studies to evaluate the relative receptor binding affinities of compounds of the invention, other compounds of formula (VII) hereinabove and well-known anti-inflammatory steroids were undertaken, using the methods described in the RECEPTOR BINDING STUDIES set forth above. […] For comparison purposes, the following compounds having formula (VII) above were also tested: […]

[2] = test system: forearms of a human volunteer; assay: Further human vasoconstriction testing, Method 1; assay type: in vivo
Method: The mixtures, in 50 μL amounts, were applied to circular patches (8 mm diameter). After evaporation of ethanol, the patches were applied to the forearms of a human volunteer, and covered with a water impervious film for 3 hr. The intensity of vasoconstriction (scale 0-4) was judged at various time intervals after removal of the patches. The grading scale was as follows: 0, normal skin; 1, slight pallor of indistinct outline; 2, pallor with at least two corners outlined; 3, even pallor with a clear outline of the application sites; 4, very intense pallor. The skin tests (2-4 tests on each compound) were performed on the same person.

in vitro = in vitro ADME; conditions: rat, lung cytosol
Method: To determine that the compounds of the invention can be stable during the incubation period, the test compounds A, B, C, and D were investigated for their stabilities at the incubation conditions, which are room temperature and 2 hours, for receptor binding studies. The frozen cytosol which was made for the receptor binding study was thawed in a water bath and diluted with 1 part of incubation buffer (10 mM Tris/HCl, 10 mM sodium molybdate, and 2 mM 1,4-dithiothreitol) containing a 15 mM concentration of enzyme inhibitor, diisopropyl fluorophosphate. Portions (560 μL) of the diluted cytosol were added to centrifuge tubes containing 80 μL portions of blank incubation buffer instead of volume of tracer ([^3 H]triamcinolone acetonide) which would be used in the receptor binding study (RBS), 80 μL of solution of a Δ^1 -cortienic acid (0.1 mM) in buffer (the final concentration of Δ^1 -cortienic acid in the incubation medium was […]), and 80 μL of 100,000 nM of concentrations of test compounds in ethanol to give a final concentration of 10,000 nM. This mixture was kept at room temperature for 2 hours. Samples of 0.1 mL were taken at appropriate time intervals (0, 0.5, 1, 1.5, 2 hours) and were mixed with 0.2 mL of acetonitrile containing 5% DMSO. Each mixture was centrifuged and the supernatant were injected in the HPLC.
Male Sprague-Dawley rats, each weighing 150 to 200 g, were used 6 days after adrenalectomy. Rats were sacrificed by decapitation. Immediately after resection of the lungs, the tissue was frozen in ice. The cytosol was prepared using a slight modification of a previously described method (Dahlberg, 1984); After addition of 6 volumes of ice-cold incubation buffer (10 mM Tris/HCl, 10 mM sodium molybdate, and 2 mM 1,4-dithiothreitol), the tissue was homogenized with the Virtis 45 homogenizer at full speed, for 4 periods of 10 seconds with a 10-second cooling period between each step. The homogenate was centrifuged at 35,000 g for 1 hour at 4° C. in a Beckman ultracentrifuge L8-70M equipped with a T170 rotor. Portions (5 ml) of the cytosol were frozen in liquid nitrogen and stored at -80° C.

[3] = 24 Hours, 1 hour re-occlusion at 20-21 hours, 0.01 mM
[4] = 24 Hours, 1 hour re-occlusion at 20-21 hours, 0.05 mM
[5] = 24 Hours, 1 hour re-occlusion at 20-21 hours, 0.1 mM
[6] = 24 Hours, 1 hour re-occlusion at 20-21 hours, 0.5 mM

Structure (SMILES)	RBA [1]	Vasoconstriction activity ([2]; 3 Hours, 0.01 mM)	Vasoconstriction activity ([2]; 3 Hours, 0.05 mM)	Vasoconstriction activity ([2]; 3 Hours, 0.1 mM)	Vasoconstriction activity ([2]; 3 Hours, 0.5 mM)	Vasoconstriction activity ([2]; 3 Hours, 1 mM)	Vasoconstriction activity ([2]; 3 Hours, 5 mM)	Vasoconstriction activity ([2]; 3 Hours, 10 mM)	Vasoconstriction activity ([2]; 20 Hours, 0.01 mM)	Vasoconstriction activity ([2]; 20 Hours, 0.05 mM)	Vasoconstriction activity ([2]; 20 Hours, 0.1 mM)	Vasoconstriction activity ([2]; 20 Hours, 0.5 mM)	Vasoconstriction activity ([2]; 20 Hours, 1 mM)	Vasoconstriction activity ([2]; 20 Hours, 5 mM)	Vasoconstriction activity ([2]; 20 Hours, 10 mM)	Vasoconstriction activity [2, 3]	Vasoconstriction activity [2, 4]	Vasoconstriction activity [2, 5]	Vasoconstriction activity [2, 6]	remaining at 2 h (in vitro)	other results
CCCCC(=O)O[C@]1(C(=O)CO)[C@@H](C)C[C@H]2[C@@H]3CCC4=CC(=O)C=C[C@]4(C)[C@@]3(F)[C@@H](O)C[C@@]21C [Betamethasone 17-valerate, reference compound]	1742 ± 130	0	1	1	2	3	3	4	0	1	1	1	1	1	2	1	1	2	2		
CCOC(=O)[C@@]1(OC(=O)C(Cl)Cl)[C@H](C)C[C@H]2[C@@H]3CCC4=CC(=O)C=C[C@]4(C)[C@@]3(F)[C@@H](O)C[C@@]21C [J, ethyl 17α-dichloroacetoxy-9α-fluoro-11β-hydroxy-16α-methylandrosta-1,4-dien-3-one-17β-carboxylate]	687 ± 49	0	1	2	2	3	3	4	0	0	0	1	1	1	2	1	1	2	2	> 90%	
C[C@]12C=CC(=O)C=C1CC[C@@H]1[C@@H]2[C@@H](O)C[C@@]2(C)[C@H]1CC[C@]2(OC(=O)C(Cl)Cl)C(=O)OCCl [Compound D, Chloromethyl 17α-dichloroacetoxy-11β-hydroxyandrosta-1,4-dien-3-one-17β-carboxylate]	684							4							1					70%	IC50 [1]: 11.9 nM; Relative binding affinity (RBA) [1]: 684; remaining at 2 h, 10 µM (in vitro): 70.6%
COC(=O)[C@@]1(OC(=O)C(Cl)Cl)[C@H](C)C[C@H]2[C@@H]3CCC4=CC(=O)C=C[C@]4(C)[C@@]3(F)[C@@H](O)C[C@@]21C [Compound I, methyl 17α-dichloroacetoxy-9α-fluoro-11β-hydroxy-16α-methylandrosta-1,4-dien-3-one-17β-carboxylate]	1745 ± 185	1	2	2	3	4	4	4	0	1	1	1	1	2		1	2	3	3	> 90%	Relative binding affinity (RBA) [1]: 495
CCOC(=O)[C@@]1(OC(=O)C(Cl)Cl)CC[C@H]2[C@@H]3CCC4=CC(=O)C=C[C@]4(C)[C@H]3[C@@H](O)C[C@@]21C [Compound B, Ethyl 17α-dichloroacetoxy-11β-hydroxyandrosta-1,4-dien-3-one-17β-carboxylate]	222 ± 16	0	1	1	2	3	3	4	0	0	1	1	1	1	2	1	1	2	2	75%	Receptor binding affinity ([1]; With Δ1-cortienic acid (Table IX)): 204; Receptor binding affinity ([1]; Without Δ1-cortienic acid (Table IX)): 181; IC50 [1]: 40.1 nM; Relative binding affinity (RBA) [1]: 204; remaining at 2 h, 10 µM (in vitro): 100%
COC(=O)[C@@]1(OC(=O)C(Cl)Cl)CC[C@H]2[C@@H]3CCC4=CC(=O)C=C[C@]4(C)[C@H]3[C@@H](O)C[C@@]21C [Compound A, Methyl 17α-dichloroacetoxy-11β-hydroxyandrosta-1,4-dien-3-one-17β-carboxylate]	165							4							2					75%	IC50 [1]: 49.5 nM; Relative binding affinity (RBA) [1]: 165; remaining at 2 h, 10 µM (in vitro): 75.1%
